In PubChem BioAssay AID330 (DTP/NCI, 2004):
“And” between values parts separate entries of the source, which are not always exact repeats. Identical values can stand only once. Inconclusive results and toxic doses are left out.

System: P388 leukemia ip, CD2F1 mice, survival T/C
Experiment: NCI In Vivo Anticancer Drug Screen. Data for tumor model P388 Leukemia (intraperitoneal) in CD2F1 (CDF1) mice
Details: endpoint: median survival time, higher = longer survival
Summary of the method: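 Mice carrying the transplanted tumor received test compound or vehicle. Survival was recorded in each group, and the value is the treated-group measurement divided by that of the vehicle-treated control group.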

[1] = dose: 50.0 mg/kg/injection, schedule: Q01DX009 (ip), vehicle: Klucel (hydroxypropylcellulose) (HPC)
[2] = dose: 100.0 mg/kg/injection, schedule: Q01DX009 (ip), vehicle: Klucel (hydroxypropylcellulose) (HPC)
[3] = dose: 200.0 mg/kg/injection, schedule: Q01DX009 (ip), vehicle: Klucel (hydroxypropylcellulose) (HPC)
[4] = dose: 60.0 mg/kg/injection, schedule: Q01DX005 (ip), vehicle: Klucel (hydroxypropylcellulose) (HPC)
[5] = dose: 120.0 mg/kg/injection, schedule: Q01DX005 (ip), vehicle: Klucel (hydroxypropylcellulose) (HPC)
[6] = dose: 50.0 mg/kg/injection, schedule: Q01DX005 (ip), vehicle: Klucel (hydroxypropylcellulose) (HPC)
[7] = dose: 100.0 mg/kg/injection, schedule: Q01DX005 (ip), vehicle: Klucel (hydroxypropylcellulose) (HPC)
[8] = dose: 50.0 mg/kg/injection, schedule: Q01DX005 (ip), vehicle: saline with Tween-80
[9] = dose: 100.0 mg/kg/injection, schedule: Q01DX005 (ip), vehicle: saline with Tween-80
[10] = dose: 200.0 mg/kg/injection, schedule: Q01DX005 (ip), vehicle: saline with Tween-80
[11] = dose: 6.25 mg/kg/injection, schedule: Q01DX009 (ip), vehicle: saline
[12] = dose: 200.0 mg/kg/injection, schedule: Q01DX005 (ip), vehicle: Klucel (hydroxypropylcellulose) (HPC)
[13] = dose: 60.0 mg/kg/injection, schedule: Q01DX005 (ip), vehicle: saline with Tween-80
[14] = dose: 120.0 mg/kg/injection, schedule: Q01DX005 (ip), vehicle: saline with Tween-80
[15] = dose: 240.0 mg/kg/injection, schedule: Q01DX005 (ip), vehicle: saline with Tween-80
[16] = dose: 12.5 mg/kg/injection, schedule: Q01DX005 (ip), vehicle: Klucel (hydroxypropylcellulose) (HPC)
[17] = dose: 25.0 mg/kg/injection, schedule: Q01DX005 (ip), vehicle: Klucel (hydroxypropylcellulose) (HPC)
[18] = dose: 50.0 mg/kg/injection, schedule: Q01DX009 (ip), vehicle: saline with Tween-80
[19] = dose: 100.0 mg/kg/injection, schedule: Q01DX009 (ip), vehicle: saline with Tween-80
[20] = dose: 200.0 mg/kg/injection, schedule: Q01DX009 (ip), vehicle: saline with Tween-80
[21] = dose: 25.0 mg/kg/injection, schedule: Q01DX009 (ip), vehicle: saline with Tween-80

In the case of NC(CSC(c1ccccc1)(c1ccccc1)c1ccc(CBr)cc1)C(=O)O (stereo not drawn), the T/C (dose: 12.5 mg/kg/injection, schedule: Q01DX009 (ip), vehicle: Klucel (hydroxypropylcellulose) (HPC)) is reported as 86 % of control, the T/C (dose: 12.5 mg/kg/injection, schedule: Q01DX009 (ip), vehicle: other) is reported as 120 % of control and the T/C (dose: 25.0 mg/kg/injection, schedule: Q01DX009 (ip), vehicle: Klucel (hydroxypropylcellulose) (HPC)) is reported as 90 % of control. For the same compound, the T/C [1] was 95 % of control, the T/C [2] was 88 % of control and the T/C (dose: 100.0 mg/kg/injection, schedule: Q01DX009 (ip), vehicle: other) was 151 % of control and 159 % of control. The T/C [3] was 90 % of control, the T/C (dose: 200.0 mg/kg/injection, schedule: Q01DX009 (ip), vehicle: other) was 162 % of control and 178 % of control and the T/C (dose: 400.0 mg/kg/injection, schedule: Q01DX009 (ip), vehicle: Klucel (hydroxypropylcellulose) (HPC)) was 94 % of control. For the same compound, the T/C (dose: 400.0 mg/kg/injection, schedule: Q01DX009 (ip), vehicle: other) was 182 % of control.

For CCc1c(C(=O)OC)c(C(=O)OC)c(-c2ccccc2)n1CCn1c(CC)c(C(=O)OC)c(C(=O)OC)c1-c1ccccc1, the T/C [4] was 96 % of control, the T/C [5] was 91 % of control and the T/C (dose: 240.0 mg/kg/injection, schedule: Q01DX005 (ip), vehicle: Klucel (hydroxypropylcellulose) (HPC)) was 93 % of control.

With O=S(=O)(CI)OCCCl the T/C [6] was 102 % of control and the T/C [7] was 110 % of control.

With CCN=C1C=CC(=C(c2ccc(N(CC)CC)cc2)c2ccc(N(CC)CC)cc2)c2ccccc21 the T/C (dose: 6.25 mg/kg/injection, schedule: Q01DX005 (ip), vehicle: saline with Tween-80) was 110 % of control and 113 % of control, the T/C (dose: 12.5 mg/kg/injection, schedule: Q01DX005 (ip), vehicle: saline with Tween-80) was 118 % of control (2×) and 119 % of control and the T/C (dose: 25.0 mg/kg/injection, schedule: Q01DX005 (ip), vehicle: saline with Tween-80) was 115 % of control.

With N#CC1CCN(Cc2ccccc2)C(C#N)C1 (stereo not drawn) the T/C (dose: 15.0 mg/kg/injection, schedule: Q01DX005 (ip), vehicle: Klucel (hydroxypropylcellulose) (HPC)) was 105 % of control, the T/C (dose: 30.0 mg/kg/injection, schedule: Q01DX005 (ip), vehicle: Klucel (hydroxypropylcellulose) (HPC)) was 106 % of control and the T/C [4] was 102 % of control and 106 % of control.

With Nc1ccc([N+](=O)[O-])cc1C(=O)NCCc1ccncc1 the T/C [8] was 95 % of control, the T/C [9] was 97 % of control and the T/C [10] was 99 % of control.

With CCOc1c(C)cc(C(C)c2cc3c(cc2OC)OCO3)cc1C (stereo not drawn) the T/C [8] was 97 % of control, the T/C [9] was 99 % of control and the T/C [10] was 107 % of control.

With CCOC(=O)C1CSC2(CCCC2)N1 (stereo not drawn) the T/C (dose: 100.0 mg/kg/injection, schedule: Q04DX002 (ip), vehicle: saline with Tween-80) was 110 % of control, the T/C (dose: 200.0 mg/kg/injection, schedule: Q04DX002 (ip), vehicle: saline with Tween-80) was 109 % of control and the T/C (dose: 400.0 mg/kg/injection, schedule: Q04DX002 (ip), vehicle: saline with Tween-80) was 100 % of control.

In the case of CN(C)c1ccc(N=O)cc1, the T/C (dose: 1.56 mg/kg/injection, schedule: Q01DX009 (ip), vehicle: saline) is reported as 110 % of control, the T/C (dose: 3.12 mg/kg/injection, schedule: Q01DX009 (ip), vehicle: saline) is reported as 110 % of control and the T/C [11] is reported as 94 % of control.

In the case of O=C(OCc1ccccc1)N(CCF)c1cn(Cc2ccccc2)c(=O)n(Cc2ccccc2)c1=O, the T/C [6] is reported as 93 % of control, the T/C [7] is reported as 96 % of control and the T/C [12] is reported as 87 % of control.

Nc1c(C(=O)NCCc2ccccc2)c2nc3c(C(=O)NCCc4ccccc4)ccc(Br)c3oc-2c(Br)c1=O was tested, and the T/C [8] was 89 % of control, the T/C [9] was 94 % of control and the T/C [10] was 99 % of control.

For COC(=O)/C=C/N=[N+]=[N-], the T/C [13] was 106 % of control, the T/C [14] was 106 % of control and the T/C [15] was 106 % of control.

In the case of [CH3][Sn]([CH3])([n]1ccnc1)[n]1ccnc1, the T/C (dose: 6.25 mg/kg/injection, schedule: Q01DX005 (ip), vehicle: Klucel (hydroxypropylcellulose) (HPC)) is reported as 120 % of control, the T/C [16] is reported as 119 % of control and the T/C [6] is reported as 120 % of control.

O=C(OCC1OC(O)(COC(=O)c2ccccc2)C(OC(=O)c2ccccc2)C1OC(=O)c1ccccc1)c1ccccc1 (stereo not drawn) was tested, and the T/C [16] was 97 % of control, the T/C [17] was 98 % of control and the T/C [6] was 90 % of control and 92 % of control.

With CCCCCCCCCCCCCCOCCS(=O)(=O)O the T/C [13] was 86 % of control and the T/C [15] was 100 % of control.

O=C(NC(=NC(=Nc1ccc(Cl)cc1)c1ccccc1)c1ccccc1)c1ccccc1 was tested, and the T/C [18] was 92 % of control, the T/C [19] was 95 % of control and the T/C [20] was 99 % of control.

With CC(C)c1nccn1Cc1c(Cl)cccc1Cl the T/C [1] was 102 % of control, the T/C [2] was 95 % of control and the T/C [3] was 96 % of control.

With COc1ccc2c(c1)no[n+]2[O-] the T/C (dose: 100.0 mg/kg/injection, schedule: Q04DX002 (ip), vehicle: saline) was 93 % of control, the T/C (dose: 200.0 mg/kg/injection, schedule: Q04DX002 (ip), vehicle: saline) was 92 % of control and the T/C (dose: 400.0 mg/kg/injection, schedule: Q04DX002 (ip), vehicle: saline) was 99 % of control.

For c1ccc(CN2Cc3c(n(-c4ccccc4)c4ccccc34)C2)cc1, the T/C (dose: 100.0 mg/kg/injection, schedule: Q04DX003 (ip), vehicle: Klucel (hydroxypropylcellulose) (HPC)) was 105 % of control, the T/C (dose: 200.0 mg/kg/injection, schedule: Q04DX003 (ip), vehicle: Klucel (hydroxypropylcellulose) (HPC)) was 112 % of control and the T/C (dose: 400.0 mg/kg/injection, schedule: Q04DX003 (ip), vehicle: Klucel (hydroxypropylcellulose) (HPC)) was 114 % of control.

In the case of [Se]c1nc(N2CCOCC2)ncc1-c1ccccc1, the T/C (dose: 6.25 mg/kg/injection, schedule: Q01DX009 (ip), vehicle: saline with Tween-80) is reported as 100 % of control, the T/C (dose: 12.5 mg/kg/injection, schedule: Q01DX009 (ip), vehicle: saline with Tween-80) is reported as 95 % of control and the T/C [21] is reported as 95 % of control. The T/C [20] was 92 % of control.

CCOC(=O)C(C(=O)OCC)=C(N)C(Cl)(Cl)Cl was tested, and the T/C [17] was 116 % of control, the T/C [6] was 117 % of control and the T/C [7] was 111 % of control. The T/C [12] was 110 % of control.

With CC(=O)NC(Cc1c[nH]c2ccccc12)C(C)=O (stereo not drawn) the T/C [21] was 89 % of control, the T/C [18] was 91 % of control and the T/C [19] was 106 % of control. The T/C [20] was 97 % of control.

With CC(C)C(CO)NC(=O)c1ccccc1 (stereo not drawn) the T/C (dose: 100.0 mg/kg/injection, schedule: Q04DX002 (ip), vehicle: Klucel (hydroxypropylcellulose) (HPC)) was 95 % of control, the T/C (dose: 200.0 mg/kg/injection, schedule: Q04DX002 (ip), vehicle: Klucel (hydroxypropylcellulose) (HPC)) was 96 % of control and the T/C (dose: 400.0 mg/kg/injection, schedule: Q04DX002 (ip), vehicle: Klucel (hydroxypropylcellulose) (HPC)) was 95 % of control.

With OC/C(Cl)=C(\Cl)CO the T/C [11] was 110 % of control, the T/C (dose: 12.5 mg/kg/injection, schedule: Q01DX009 (ip), vehicle: saline) was 95 % of control and the T/C (dose: 25.0 mg/kg/injection, schedule: Q01DX009 (ip), vehicle: saline) was 100 % of control.

Cc1ccc(S(=O)(=O)OCC2(COS(=O)(=O)c3ccc(C)cc3)CCC2)cc1 was tested, and the T/C [13] was 102 % of control, the T/C [14] was 100 % of control and the T/C [15] was 100 % of control.

Cc1ccc(NC(=O)Nc2cc(S(=O)(=O)O)ccc2Oc2ccccc2Cl)cc1 was tested, and the T/C (dose: 100.0 mg/kg/injection, schedule: Q04DX003 (ip), vehicle: saline sonified) was 100 % of control, the T/C (dose: 200.0 mg/kg/injection, schedule: Q04DX003 (ip), vehicle: saline sonified) was 90 % of control and the T/C (dose: 400.0 mg/kg/injection, schedule: Q04DX003 (ip), vehicle: saline sonified) was 100 % of control.

For CCP(=S)(CC)[S][Sn]([CH3])([CH3])[S]P(=S)(CC)CC, the T/C [6] was 118 % of control and the T/C [7] was 115 % of control.

Nc1nnc(Cc2ccc(Br)cc2)o1 was tested, and the T/C [13] was 98 % of control, the T/C [14] was 97 % of control and the T/C [15] was 100 % of control.

O=C1OI(O)c2ccccc21 was tested, and the T/C [4] was 106 % of control and the T/C [5] was 106 % of control.
